Results reported in article PMC4685510, “A Cell Biologist’s Field Guide to Aurora Kinase Inhibitors” (Frontiers in Oncology, 2015).

Tests used:
Test in all cases: biochemical
Type in all cases: biochemical
[1] = biological target: T1, 363 human kinases (including Aurora A/B/C) (Homo sapiens, UniProt O00444); conditions: PLK4/SAK; for remaining activity at 0.1 µM: 100 nM; for remaining activity at 0.1 µM / remaining activity at 0.5 µM: read-out: % Enzyme Activity (relative to DMSO controls)
T1 sequence (O00444 1-970): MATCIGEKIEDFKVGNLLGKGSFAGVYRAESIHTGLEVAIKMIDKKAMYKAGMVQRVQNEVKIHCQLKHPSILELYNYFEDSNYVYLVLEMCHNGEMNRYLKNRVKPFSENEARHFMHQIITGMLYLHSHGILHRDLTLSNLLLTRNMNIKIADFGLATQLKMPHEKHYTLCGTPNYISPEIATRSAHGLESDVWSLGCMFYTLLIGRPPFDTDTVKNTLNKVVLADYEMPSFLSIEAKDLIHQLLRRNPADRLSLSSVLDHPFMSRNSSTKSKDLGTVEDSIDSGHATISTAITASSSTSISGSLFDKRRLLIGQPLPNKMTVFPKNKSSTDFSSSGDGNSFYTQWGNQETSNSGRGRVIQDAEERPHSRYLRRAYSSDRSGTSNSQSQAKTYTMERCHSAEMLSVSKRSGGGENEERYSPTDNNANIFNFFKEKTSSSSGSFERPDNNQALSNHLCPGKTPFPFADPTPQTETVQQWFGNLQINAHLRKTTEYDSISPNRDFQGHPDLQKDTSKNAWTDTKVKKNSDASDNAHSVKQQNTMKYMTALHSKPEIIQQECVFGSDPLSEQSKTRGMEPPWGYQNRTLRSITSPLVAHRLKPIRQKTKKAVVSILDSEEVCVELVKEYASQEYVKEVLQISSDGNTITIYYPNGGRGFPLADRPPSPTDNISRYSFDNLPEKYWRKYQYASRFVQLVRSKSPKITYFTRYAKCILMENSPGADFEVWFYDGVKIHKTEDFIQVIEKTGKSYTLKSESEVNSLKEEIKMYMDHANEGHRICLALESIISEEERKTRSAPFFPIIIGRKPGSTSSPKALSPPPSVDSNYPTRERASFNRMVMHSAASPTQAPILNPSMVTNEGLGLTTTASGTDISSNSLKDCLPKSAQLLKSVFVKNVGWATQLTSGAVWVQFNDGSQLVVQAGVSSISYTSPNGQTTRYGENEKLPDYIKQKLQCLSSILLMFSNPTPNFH
Description: (§1) However, the Aurora A/B selectivity ratios derived from our in vitro and in vivo data can be compared to prioritize inhibitors.

[2] = biological target: 363 human kinases (including Aurora A/B/C) (Homo sapiens, UniProt P49760); conditions: CLK2, [ATP] 50 µM; for remaining activity at 0.1 µM: 100 nM; for remaining activity at 0.1 µM / remaining activity at 0.5 µM: read-out: % Enzyme Activity (relative to DMSO controls)
Chain of 363 human kinases (including Aurora A/B/C) (Homo sapiens, UniProt P49760) (P49760 whole entry): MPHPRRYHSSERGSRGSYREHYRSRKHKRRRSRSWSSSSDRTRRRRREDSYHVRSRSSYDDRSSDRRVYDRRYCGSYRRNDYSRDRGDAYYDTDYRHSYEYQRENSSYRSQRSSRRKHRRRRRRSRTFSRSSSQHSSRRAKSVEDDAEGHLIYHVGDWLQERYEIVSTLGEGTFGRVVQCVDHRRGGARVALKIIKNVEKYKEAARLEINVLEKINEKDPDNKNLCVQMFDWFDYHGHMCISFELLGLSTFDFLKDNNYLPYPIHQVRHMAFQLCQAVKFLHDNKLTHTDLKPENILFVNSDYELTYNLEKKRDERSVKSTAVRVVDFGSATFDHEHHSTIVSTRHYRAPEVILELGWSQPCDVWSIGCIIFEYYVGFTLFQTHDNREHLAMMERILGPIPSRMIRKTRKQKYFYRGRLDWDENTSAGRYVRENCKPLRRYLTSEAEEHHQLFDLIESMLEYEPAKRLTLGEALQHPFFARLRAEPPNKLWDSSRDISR
Description: as §1

[3] = biological target: 363 human kinases (including Aurora A/B/C) (Homo sapiens, UniProt Q02779); conditions: MLK2/MAP3K10; for remaining activity at 0.1 µM: 100 nM; for remaining activity at 0.1 µM / remaining activity at 0.5 µM: read-out: % Enzyme Activity (relative to DMSO controls)
Chain of 363 human kinases (including Aurora A/B/C) (Homo sapiens, UniProt Q02779) (Q02779 whole entry): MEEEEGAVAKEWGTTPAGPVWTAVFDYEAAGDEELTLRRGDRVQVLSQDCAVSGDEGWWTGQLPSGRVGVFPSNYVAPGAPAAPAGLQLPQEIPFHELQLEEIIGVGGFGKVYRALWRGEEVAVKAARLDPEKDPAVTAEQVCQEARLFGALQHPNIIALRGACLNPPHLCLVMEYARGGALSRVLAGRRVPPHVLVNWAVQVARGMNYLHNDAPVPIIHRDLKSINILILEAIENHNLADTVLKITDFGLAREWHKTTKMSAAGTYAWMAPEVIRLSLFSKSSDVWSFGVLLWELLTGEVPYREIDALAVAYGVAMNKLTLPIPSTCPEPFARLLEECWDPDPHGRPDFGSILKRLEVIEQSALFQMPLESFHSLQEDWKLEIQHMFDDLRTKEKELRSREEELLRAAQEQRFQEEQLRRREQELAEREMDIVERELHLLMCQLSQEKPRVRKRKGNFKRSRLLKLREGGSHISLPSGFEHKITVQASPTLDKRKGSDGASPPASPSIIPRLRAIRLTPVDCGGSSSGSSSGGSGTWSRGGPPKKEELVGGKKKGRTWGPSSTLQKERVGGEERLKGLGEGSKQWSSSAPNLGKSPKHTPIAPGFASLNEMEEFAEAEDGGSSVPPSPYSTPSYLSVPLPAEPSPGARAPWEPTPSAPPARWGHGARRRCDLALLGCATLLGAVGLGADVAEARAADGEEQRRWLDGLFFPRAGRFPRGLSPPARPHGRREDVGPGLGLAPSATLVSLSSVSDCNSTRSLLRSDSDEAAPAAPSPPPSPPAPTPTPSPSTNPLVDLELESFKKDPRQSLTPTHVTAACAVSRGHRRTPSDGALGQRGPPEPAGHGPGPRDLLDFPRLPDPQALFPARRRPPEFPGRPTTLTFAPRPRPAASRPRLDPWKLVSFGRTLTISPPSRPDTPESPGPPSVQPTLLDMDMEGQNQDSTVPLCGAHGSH
Description: as §1

[4] = biological target: 363 human kinases (including Aurora A/B/C) (Homo sapiens, UniProt Q5TCX8); conditions: MLK4; for remaining activity at 0.1 µM: 100 nM; for remaining activity at 0.1 µM / remaining activity at 0.5 µM: read-out: % Enzyme Activity (relative to DMSO controls)
Chain of 363 human kinases (including Aurora A/B/C) (Homo sapiens, UniProt Q5TCX8) (Q5TCX8 whole entry): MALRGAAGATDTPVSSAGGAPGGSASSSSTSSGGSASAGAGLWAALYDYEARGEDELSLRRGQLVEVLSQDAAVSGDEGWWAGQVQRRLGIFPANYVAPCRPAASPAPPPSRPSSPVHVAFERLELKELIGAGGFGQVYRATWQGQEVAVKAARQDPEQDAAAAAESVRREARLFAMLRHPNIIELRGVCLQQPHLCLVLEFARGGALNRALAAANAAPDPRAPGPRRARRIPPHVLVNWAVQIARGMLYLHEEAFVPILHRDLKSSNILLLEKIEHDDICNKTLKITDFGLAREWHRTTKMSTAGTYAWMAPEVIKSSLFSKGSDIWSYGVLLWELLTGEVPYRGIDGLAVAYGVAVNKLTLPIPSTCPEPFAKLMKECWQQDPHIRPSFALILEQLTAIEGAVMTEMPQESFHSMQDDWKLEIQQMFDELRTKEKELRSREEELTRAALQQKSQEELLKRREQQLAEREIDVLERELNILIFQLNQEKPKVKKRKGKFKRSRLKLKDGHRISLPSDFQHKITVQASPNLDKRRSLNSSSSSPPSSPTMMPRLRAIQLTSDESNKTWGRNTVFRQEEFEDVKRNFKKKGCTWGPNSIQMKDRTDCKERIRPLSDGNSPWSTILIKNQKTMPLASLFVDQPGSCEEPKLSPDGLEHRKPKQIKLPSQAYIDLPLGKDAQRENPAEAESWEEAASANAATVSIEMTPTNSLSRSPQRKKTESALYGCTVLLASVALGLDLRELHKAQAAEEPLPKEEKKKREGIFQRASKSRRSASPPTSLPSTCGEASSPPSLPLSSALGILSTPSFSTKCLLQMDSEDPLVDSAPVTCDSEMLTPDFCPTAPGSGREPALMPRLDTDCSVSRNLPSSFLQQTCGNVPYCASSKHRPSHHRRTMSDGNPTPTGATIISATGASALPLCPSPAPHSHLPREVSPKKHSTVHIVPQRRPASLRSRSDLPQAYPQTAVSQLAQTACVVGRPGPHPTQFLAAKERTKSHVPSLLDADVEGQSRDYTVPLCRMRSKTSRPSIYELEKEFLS
Description: as §1

[5] = biological target: 363 human kinases (including Aurora A/B/C) (Homo sapiens, UniProt Q9BYT3); conditions: STK33; for remaining activity at 0.1 µM: 100 nM; for remaining activity at 0.1 µM / remaining activity at 0.5 µM: read-out: % Enzyme Activity (relative to DMSO controls)
Chain of 363 human kinases (including Aurora A/B/C) (Homo sapiens, UniProt Q9BYT3) (Q9BYT3 whole entry): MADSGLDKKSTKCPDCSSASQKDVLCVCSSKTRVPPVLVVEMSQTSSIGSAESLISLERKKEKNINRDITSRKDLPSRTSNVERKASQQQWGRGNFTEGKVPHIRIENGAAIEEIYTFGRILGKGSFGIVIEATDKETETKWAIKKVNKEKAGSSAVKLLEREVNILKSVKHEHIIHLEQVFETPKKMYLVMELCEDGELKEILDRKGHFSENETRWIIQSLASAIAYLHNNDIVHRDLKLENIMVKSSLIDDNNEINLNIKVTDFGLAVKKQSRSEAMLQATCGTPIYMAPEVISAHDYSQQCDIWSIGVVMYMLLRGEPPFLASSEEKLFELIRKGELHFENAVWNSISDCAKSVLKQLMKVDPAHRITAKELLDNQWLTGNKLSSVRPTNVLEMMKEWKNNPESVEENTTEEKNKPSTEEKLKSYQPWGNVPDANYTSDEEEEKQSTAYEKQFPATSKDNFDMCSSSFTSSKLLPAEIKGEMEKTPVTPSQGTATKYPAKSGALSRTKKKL
Description: as §1

[6] = biological target: T2, 363 human kinases (including Aurora A/B/C) (Homo sapiens, UniProt Q9NRM7); conditions: LATS2; for remaining activity at 0.1 µM: 100 nM; for remaining activity at 0.1 µM / remaining activity at 0.5 µM: read-out: % Enzyme Activity (relative to DMSO controls)
T2 sequence (Q9NRM7 1-1088): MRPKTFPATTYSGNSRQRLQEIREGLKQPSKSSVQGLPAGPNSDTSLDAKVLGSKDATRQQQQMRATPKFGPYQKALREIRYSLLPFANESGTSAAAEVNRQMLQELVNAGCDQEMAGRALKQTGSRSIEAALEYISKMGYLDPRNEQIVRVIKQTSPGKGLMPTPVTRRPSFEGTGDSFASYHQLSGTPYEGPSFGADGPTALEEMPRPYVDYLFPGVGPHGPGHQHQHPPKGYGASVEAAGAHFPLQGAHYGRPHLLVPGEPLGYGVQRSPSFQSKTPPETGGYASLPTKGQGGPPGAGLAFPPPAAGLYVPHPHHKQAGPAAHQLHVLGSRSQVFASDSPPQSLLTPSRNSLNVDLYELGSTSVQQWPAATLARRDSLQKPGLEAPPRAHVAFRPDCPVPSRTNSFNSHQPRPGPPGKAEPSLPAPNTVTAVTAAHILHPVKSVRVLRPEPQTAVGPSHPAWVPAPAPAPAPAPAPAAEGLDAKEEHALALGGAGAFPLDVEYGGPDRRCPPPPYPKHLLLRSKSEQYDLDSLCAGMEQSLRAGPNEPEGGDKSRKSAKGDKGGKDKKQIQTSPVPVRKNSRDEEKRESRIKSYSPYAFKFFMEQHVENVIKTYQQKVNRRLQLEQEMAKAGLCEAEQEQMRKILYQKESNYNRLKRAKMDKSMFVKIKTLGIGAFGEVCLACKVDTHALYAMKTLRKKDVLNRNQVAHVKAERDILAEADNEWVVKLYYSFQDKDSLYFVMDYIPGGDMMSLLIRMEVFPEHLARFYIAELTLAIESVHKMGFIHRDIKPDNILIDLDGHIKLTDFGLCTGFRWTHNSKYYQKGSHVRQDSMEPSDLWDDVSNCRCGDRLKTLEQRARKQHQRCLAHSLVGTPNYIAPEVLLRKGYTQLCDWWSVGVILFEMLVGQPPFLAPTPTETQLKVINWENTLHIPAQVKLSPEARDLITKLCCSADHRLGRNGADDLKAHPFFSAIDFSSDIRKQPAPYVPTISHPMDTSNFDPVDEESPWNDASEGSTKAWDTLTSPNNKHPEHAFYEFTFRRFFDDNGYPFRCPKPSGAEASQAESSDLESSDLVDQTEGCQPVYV
Description: as §1

[7] = biological target: 363 human kinases (including Aurora A/B/C) (Homo sapiens, UniProt Q9NY57); conditions: STK32B/YANK2; for remaining activity at 0.1 µM: 100 nM; for remaining activity at 0.1 µM / remaining activity at 0.5 µM: read-out: % Enzyme Activity (relative to DMSO controls)
Chain of 363 human kinases (including Aurora A/B/C) (Homo sapiens, UniProt Q9NY57) (Q9NY57 whole entry): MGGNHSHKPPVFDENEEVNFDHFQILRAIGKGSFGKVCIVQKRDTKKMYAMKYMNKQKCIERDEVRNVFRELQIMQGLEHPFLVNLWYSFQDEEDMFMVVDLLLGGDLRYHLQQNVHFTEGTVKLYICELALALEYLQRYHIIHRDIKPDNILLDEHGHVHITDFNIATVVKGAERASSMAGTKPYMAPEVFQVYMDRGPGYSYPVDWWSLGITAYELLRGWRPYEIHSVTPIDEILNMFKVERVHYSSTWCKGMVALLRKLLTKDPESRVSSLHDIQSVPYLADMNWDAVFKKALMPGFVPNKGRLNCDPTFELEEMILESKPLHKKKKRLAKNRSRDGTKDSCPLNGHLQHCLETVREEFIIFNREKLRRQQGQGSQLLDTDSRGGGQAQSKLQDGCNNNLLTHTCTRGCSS
Description: as §1

Row | SMILES | remaining activity at 0.1 µM [1] [%] | remaining activity at 0.1 µM [2] [%] | remaining activity at 0.1 µM [3] [%] | remaining activity at 0.1 µM [4] [%] | remaining activity at 0.1 µM [5] [%] | remaining activity at 0.1 µM [6] [%] | remaining activity at 0.1 µM [7] [%] | remaining activity at 0.5 µM ([1]; 500 nM) [%] | remaining activity at 0.5 µM ([2]; 500 nM) [%] | remaining activity at 0.5 µM ([3]; 500 nM) [%] | remaining activity at 0.5 µM ([4]; 500 nM) [%] | remaining activity at 0.5 µM ([5]; 500 nM) [%] | remaining activity at 0.5 µM ([6]; 500 nM) [%] | remaining activity at 0.5 µM ([7]; 500 nM) [%] | also measured
1 | CCn1cc(-c2ccnc3[nH]c(-c4cccc(CN(C)C)c4)cc23)c(-c2ccc(NC(=O)N(C)C)cc2)n1 [GSK1070916] | 115 | 93.6 | 75.6 | 89 | 111 | 90.6 | 93.6 | – | – | – | – | – | – | – | –
2 | O=C(O)[C@]1(Cc2cccc(Nc3nccs3)n2)CC[C@@H](Oc2cccc(Cl)c2F)CC1 [MK-5108] | 21.9 | 72.9 | 23.5 | 113 | 79.3 | 96.8 | 95.8 | 9.25 | 25.4 | 5.55 | 34.7 | 70.5 | 81.6 | 95.7 | –
3 | O=C(c1cccc(Cl)c1F)N1CCN(Cc2cccc(Nc3nccs3)n2)CC1 [MK-8745] | – | – | – | – | – | – | – | 71.4 | 99 | 79.9 | 91.5 | 110 | 81.8 | 97.9 | % Enzyme Activity (relative to DMSO controls) ([1]; 500 nM): 70.47%; % Enzyme Activity (relative to DMSO controls) ([2]; 500 nM): 95.24%; % Enzyme Activity (relative to DMSO controls) ([3]; 500 nM): 79.50%; % Enzyme Activity (relative to DMSO controls) ([4]; 500 nM): 91.32%; % Enzyme Activity (relative to DMSO controls) ([5]; 500 nM): 107.39%; % Enzyme Activity (relative to DMSO controls) ([6]; 500 nM): 81.73%; % Enzyme Activity (relative to DMSO controls) ([7]; 500 nM): 95.67%
